{"source": "ChEMBL document CHEMBL1135290", "about": "“Synthesis of sub-micromolar inhibitors of MraY by exploring the region originally occupied by the diazepanone ring in the liposidomycin structure” (Bioorg Med Chem Lett, 2002)", "key": {"[1]": {"tested_on": "Enterococcus faecium", "assay": "Tested in vitro for antibacterial activity against Enterococcus faecium using micro-broth dilution method", "format": "functional"}, "[2]": {"tested_on": "Escherichia coli", "assay": "Tested in vitro for antibacterial activity against Escherichia coli using micro-broth dilution method", "format": "functional"}, "[3]": {"tested_on": "Staphylococcus aureus", "assay": "Tested in vitro for antibacterial activity against Staphylococcus aureus using micro-broth dilution method", "format": "functional"}, "[4]": {"tested_on": "Streptococcus pyogenes", "assay": "Tested in vitro for antibacterial activity against Streptococcus pyogenes using micro-broth dilution method", "format": "functional"}, "[5]": {"assay": "Inhibitory activity against Translocase I"}}}
{"molecule": "CCCCCNC[C@H](O[C@@H]1O[C@H](CN)[C@@H](O)[C@H]1O)[C@@H]1C[C@@H](O)[C@H](n2ccc(=O)[nH]c2=O)O1.O=C(O)C(F)(F)F", "values": [{"measurement": "MIC", "setting": "[1]", "result": "> 80", "unit": "µg/mL"}, {"measurement": "MIC", "setting": "[2]", "result": "> 80", "unit": "µg/mL"}, {"measurement": "MIC", "setting": "[3]", "result": "> 80", "unit": "µg/mL"}, {"measurement": "MIC", "setting": "[4]", "result": "> 80", "unit": "µg/mL"}, {"measurement": "IC50", "setting": "[5]", "result": 900, "unit": "nM"}]}
{"molecule": "CCCCCCCCCCCCNC[C@H](O[C@@H]1O[C@H](CN)[C@@H](O)[C@H]1O)[C@@H]1C[C@@H](O)[C@H](n2ccc(=O)[nH]c2=O)O1.O=C(O)C(F)(F)F", "values": [{"measurement": "MIC", "setting": "[1]", "result": 20, "unit": "µg/mL"}, {"measurement": "MIC", "setting": "[2]", "result": 2.5, "unit": "µg/mL"}, {"measurement": "MIC", "setting": "[3]", "result": 5, "unit": "µg/mL"}, {"measurement": "MIC", "setting": "[4]", "result": 2.5, "unit": "µg/mL"}, {"measurement": "IC50", "setting": "[5]", "result": 700, "unit": "nM"}]}
{"molecule": "CCCCCCCCNC[C@H](O[C@@H]1O[C@H](CN)[C@@H](O)[C@H]1O)[C@@H]1C[C@@H](O)[C@H](n2ccc(=O)[nH]c2=O)O1.O=C(O)C(F)(F)F", "values": [{"measurement": "MIC", "setting": "[1]", "result": 80, "unit": "µg/mL"}, {"measurement": "MIC", "setting": "[2]", "result": "> 80", "unit": "µg/mL"}, {"measurement": "MIC", "setting": "[3]", "result": "> 80", "unit": "µg/mL"}, {"measurement": "MIC", "setting": "[4]", "result": "> 80", "unit": "µg/mL"}, {"measurement": "IC50", "setting": "[5]", "result": 820, "unit": "nM"}]}
{"molecule": "CCCCCCCCCCCCCCNC[C@H](O[C@@H]1O[C@H](CN)[C@@H](O)[C@H]1O)[C@@H]1C[C@@H](O)[C@H](n2ccc(=O)[nH]c2=O)O1.O=C(O)C(F)(F)F", "values": [{"measurement": "MIC", "setting": "[1]", "result": 10, "unit": "µg/mL"}, {"measurement": "MIC", "setting": "[2]", "result": 2.5, "unit": "µg/mL"}, {"measurement": "MIC", "setting": "[3]", "result": 2.5, "unit": "µg/mL"}, {"measurement": "MIC", "setting": "[4]", "result": 2.5, "unit": "µg/mL"}, {"measurement": "IC50", "setting": "[5]", "result": 590, "unit": "nM"}]}
